From ChEMBL document CHEMBL1128596, “Thienylimidazo[2,1-b]thiazoles as inhibitors of mitochondrial NADH dehydrogenase” (J Med Chem, 1995)

Assays:
Bos taurus = organism: Bos taurus; assay: Residual NADH:UBQ:DCIP reductase activity in beef mitochondrial particles; set-up: concentration or dose not given beside the values
Parascaris equorum = assay: Residual NADH:UBQ:DCIP reductase activity in parascaris mitochondrial particles; set-up: concentration or dose not given beside the values
[1] = Compound was tested for it's ability to inhibit NADH UBQ reductase activity in beef mitochondrial particles; set-up: species or system Bos taurus
[2] = Compound was tested for it's ability to inhibit NADH UBQ reductase activity in parascaris mitochondrial particles

| Structure (SMILES) | residual activity (Bos taurus) [%] | residual activity (Parascaris equorum) [%] | IC50 [1] [µM] | IC50 [2] [µM] |
| --- | --- | --- | --- | --- |
| c1cc(-c2cn3ccsc3n2)cs1 | 68 | 83 |  |  |
| Cn1c(-c2ccccc2)c(/C=C/c2cccs2)[n+]2ccsc12 | 81 | 94 |  |  |
| Cn1c(Cl)c(/C=C/c2cccs2)[n+]2c1SCC2 | 91 | 88 |  |  |
| Cn1c(Cl)c(/C=C\c2cccs2)[n+]2c1SCC2 | 85 | 92 |  |  |
| Cc1cn2cc(-c3ccsc3)nc2s1 | 40 | 73 | 140 |  |
| Cc1csc2nc(-c3cccs3)cn12 | 38 | 70 | 90 | 380 |
| c1csc(-c2cn3c(n2)SCC3)c1 | 68 | 88 |  |  |
| Clc1cn2cc(-c3cccs3)nc2s1 | 40 | 75 |  |  |
| Cn1c(-c2ccccc2)c(/C=C/c2cccs2)[n+]2c1SCC2 | 77 | 92 |  |  |
| Cc1csc2nc(-c3ccsc3)cn12 | 43 | 75 | 210 |  |
| Cc1cn2cc(-c3cccs3)nc2s1 | 28 | 59 | 70 | 220 |
| C=C(C)[C@H]1Cc2c(ccc3c2O[C@@H]2COc4cc(OC)c(OC)cc4[C@@H]2C3=O)O1 | 34 | 65 |  |  |
| c1csc(-c2cn3ccsc3n2)c1 | 57 | 79 |  |  |
